For data set [1], the system named is bicistronic HCV replicon (replicon RNA, GenBank Accession No. AJ242654). Description: HCV Replicon Assay. Format: cell-based. The conditions noted are these: Hepatitis C virus, 72 h, read-out: Replicon IC50.

pIC50: −log10 of the molar value. Bounds are passed on as bounds.

Consider `Cc1ccc2c(C#N)c(-c3ccc(S(=O)(=O)NC(CF)CF)cn3)n(C3CCCC3)c2c1` [compound 44, 6-(3-cyano-1-cyclopentyl-6-methyl-1H-indol-2-yl)-N-(1,3-difluoropropan-2-yl)pyridine-3-sulfonamide], for which the melting point lay within 144 to 145 °C. Besides, in data set [1], the pIC50 was greater than 6.30.
For the compound `CCCn1c(-c2ccc(S(=O)(=O)NC(CF)CF)cn2)c(C#N)c2ccc(OC(F)F)cc21` [compound 45, 6-[3-cyano-6-(difluoromethoxy)-1-propyl-1H-indol-2-yl]-N-(1,3-difluoropropan-2-yl)pyridine-3-sulfonamide], the melting point lay in the range of 156 to 158 °C. In data set [1], the pIC50 was greater than 6.30.
The like results for `N#Cc1c(-c2ccc(S(=O)(=O)NC(CF)CF)cn2)n(C2CCOC2)c2ccc(F)cc12` (centres unmarked) [compound 46, 6-[3-cyano-5-fluoro-1-(tetrahydrofuran-3-yl)-1H-indol-2-yl]-N-(1,3-difluoropropan-2-yl)pyridine-3-sulfonamide] were, in that order, 194 to 197 °C and greater than 6.30.
The like results for `CC(C)NS(=O)(=O)c1ccc(-c2c(C#N)c3cc(F)ccc3n2C2CCOC2)nc1` (centres unmarked) [compound 47, 6-[3-cyano-5-fluoro-1-(tetrahydrofuran-3-yl)-1H-indol-2-yl]-N-(propan-2-yl)pyridine-3-sulfonamide] were, in that order, 185 to 188 °C and greater than 6.30.
Consider `CCc1ccc2c(C#N)c(-c3ccc(S(=O)(=O)NC(CF)CF)cn3)n(C3CCC3)c2c1` [compound 48, 6-(3-cyano-1-cyclobutyl-6-ethyl-1H-indol-2-yl)-N-(1,3-difluoropropan-2-yl)pyridine-3-sulfonamide], for which the melting point lay in the range of 201 to 202 °C. The pIC50 in data set [1] was greater than 6.30.
As to `N#Cc1c(-c2ccc(S(=O)(=O)NC(CF)CF)cn2)n(C2CCCC2)c2cc(OC(F)F)ccc12` [compound 49, 6-[3-cyano-1-cyclopentyl-6-(difluoromethoxy)-1H-indol-2-yl]-N-(1,3-difluoropropan-2-yl)pyridine-3-sulfonamide], the melting point is 177 to 178 °C. In addition, the negative-log IC50 (pIC50) in data set [1] was greater than 6.30.
`N#Cc1c(-c2ccc(S(=O)(=O)NC(CF)CF)cn2)n(C2CCC2)c2cc(Cl)c(F)cc12` [compound 50, 6-(6-chloro-3-cyano-1-cyclobutyl-5-fluoro-1H-indol-2-yl)-N-(1,3-difluoropropan-2-yl)pyridine-3-sulfonamide]: the melting point was 211 to 213 °C. Also, in data set [1], the pIC50 is greater than 6.30.
For `CC(NS(=O)(=O)c1ccc(-c2c(C#N)c3ccc(OC(F)F)cc3n2C2CCCC2)nc1)C(F)(F)F` (centres unmarked) [compound 53, 6-[3-cyano-1-cyclopentyl-6-(difluoromethoxy)-1H-indol-2-yl]-N-(1,1,1-trifluoropropan-2-yl)pyridine-3-sulfonamide] the same measures were 189 to 195 °C and greater than 6.30.
For `Cc1ccc2c(C#N)c(-c3ccc(S(=O)(=O)NC(CF)CF)cn3)n([C@@H]3CCOC3)c2c1` [compound 54, 6-{3-cyano-6-methyl-1-[(3R)-tetrahydrofuran-3-yl]-1H-indol-2-yl}-N-(1,3-difluoropropan-2-yl)pyridine-3-sulfonamide] the same measures were 152 to 153 °C and greater than 6.30.
For `Cc1ccc2c(C#N)c(-c3ccc(S(=O)(=O)NC(C)C)cn3)n([C@@H]3CCOC3)c2c1` [compound 55, 6-{3-cyano-6-methyl-1-[(3R)-tetrahydrofuran-3-yl]-1H-indol-2-yl}-N-(propan-2-yl)pyridine-3-sulfonamide] the same measures were 164 to 167 °C and greater than 6.30.
With `N#Cc1c(-c2ccc(S(=O)(=O)NC(CF)CF)cn2)n(C2CCC2)c2cc(F)ccc12` [compound 56, 6-(3-cyano-1-cyclobutyl-6-fluoro-1H-indol-2-yl)-N-(1,3-difluoropropan-2-yl)pyridine-3-sulfonamide], the melting point was 206 to 208 °C. Further, the pIC50 in data set [1] was greater than 6.30.
For `N#Cc1c(-c2ccc(S(=O)(=O)NC(CF)CF)cn2)n(CC2CC2)c2cc(F)ccc12` [compound 57, 6-[3-cyano-1-(cyclopropylmethyl)-6-fluoro-1H-indol-2-yl]-N-(1,3-difluoropropan-2-yl)pyridine-3-sulfonamide] the same measures were 188 to 190 °C and greater than 6.30.
`N#Cc1c(-c2ccc(S(=O)(=O)NC(CF)CF)cn2)n(CC2CC2)c2ccc(F)cc12` [compound 58, 6-[3-cyano-1-(cyclopropylmethyl)-5-fluoro-1H-indol-2-yl]-N-(1,3-difluoropropan-2-yl)pyridine-3-sulfonamide] came in with a melting point of 162 to 164 °C. For the same compound, the pIC50 in data set [1] is greater than 6.30.
For `CC(C)n1c(-c2ccc(S(=O)(=O)NC(CF)CF)cn2)c(C#N)c2cc(F)ccc21` [compound 60, 6-[3-cyano-5-fluoro-1-(propan-2-yl)-1H-indol-2-yl]-N-(1,3-difluoropropan-2-yl)pyridine-3-sulfonamide] the same measures were 168 to 170 °C and greater than 6.30.
Regarding `CC(C)n1c(-c2ccc(S(=O)(=O)NC(CF)CF)cn2)c(C#N)c2ccc(F)cc21` [compound 61, 6-[3-cyano-6-fluoro-1-(propan-2-yl)-1H-indol-2-yl]-N-(1,3-difluoropropan-2-yl)pyridine-3-sulfonamide], the melting point fell in the range of 155 to 156 °C. In data set [1], the pIC50 is greater than 6.30.
As to `N#Cc1c(-c2ccc(S(=O)(=O)NC(CF)CF)cn2)n(CC2CC2)c2cc(Cl)ccc12` [compound 62, 6-[6-chloro-3-cyano-1-(cyclopropylmethyl)-1H-indol-2-yl]-N-(1,3-difluoropropan-2-yl)pyridine-3-sulfonamide], the melting point lay in the range of 223 to 227 °C. In addition, the pIC50 in data set [1] is greater than 6.30.
`CC(C)n1c(-c2ccc(S(=O)(=O)NC(CF)CF)cn2)c(C#N)c2ccc(Cl)cc21` [compound 63, 6-[6-chloro-3-cyano-1-(propan-2-yl)-1H-indol-2-yl]-N-(1,3-difluoropropan-2-yl)pyridine-3-sulfonamide]: the melting point lay in the range of 200 to 202 °C. In addition, the negative-log IC50 (pIC50) in data set [1] is greater than 6.30.
The compound `N#Cc1c(-c2ccc(S(=O)(=O)NC(CF)CF)cn2)n(C2CCCC2)c2cc(Cl)ccc12` [compound 64, 6-(6-chloro-3-cyano-1-cyclopentyl-1H-indol-2-yl)-N-(1,3-difluoropropan-2-yl)pyridine-3-sulfonamide] came in with a melting point of 236 to 240 °C. Besides, the pIC50 in data set [1] was greater than 6.30.
The like results for `CC(C)n1c(-c2ccc(S(=O)(=O)NC(CF)CF)cn2)c(C#N)c2cc(Cl)ccc21` [compound 65, 6-[5-chloro-3-cyano-1-(propan-2-yl)-1H-indol-2-yl]-N-(1,3-difluoropropan-2-yl)pyridine-3-sulfonamide] were, in that order, 212 to 215 °C and greater than 6.30.
The like results for `CC(C)NS(=O)(=O)c1ccc(-c2c(C#N)c3cccc(F)c3n2C2CCCC2)nc1` [compound 66, 6-(3-cyano-1-cyclopentyl-7-fluoro-1H-indol-2-yl)-N-(propan-2-yl)pyridine-3-sulfonamide] were, in that order, 152 to 153 °C and greater than 6.30.
For `CC(C)(CF)NS(=O)(=O)c1ccc(-c2c(C#N)c3ccc(OC(F)F)cc3n2C2CCCC2)nc1` [compound 67, 6-[3-cyano-1-cyclopentyl-6-(difluoromethoxy)-1H-indol-2-yl]-N-(1-fluoro-2-methylpropan-2-yl)pyridine-3-sulfonamide] the same measures were 224 to 229 °C and greater than 6.30.
`N#Cc1c(-c2ccc(S(=O)(=O)NC(CF)CF)cn2)n(CC2CC2)c2cc(OC(F)(F)F)ccc12` [compound 68, 6-[3-cyano-1-(cyclopropylmethyl)-6-(trifluoromethoxy)-1H-indol-2-yl]-N-(1,3-difluoropropan-2-yl)pyridine-3-sulfonamide] had a melting point of 132 to 133 °C. The pIC50 in data set [1] is greater than 6.30.
`CC(C)n1c(-c2ccc(S(=O)(=O)NC(CF)CF)cn2)c(C#N)c2ccc(OC(F)(F)F)cc21` [compound 69, 6-[3-cyano-1-(propan-2-yl)-6-(trifluoromethoxy)-1H-indol-2-yl]-N-(1,3-difluoropropan-2-yl)pyridine-3-sulfonamide] gave a melting point of 116 to 117 °C. In addition, the pIC50 in data set [1] is greater than 6.30.
The like results for `N#Cc1c(-c2ccc(S(=O)(=O)NC(CF)CF)cn2)n(C2CCCC2)c2cc(OC(F)(F)F)ccc12` [compound 70, 6-[3-cyano-1-cyclopentyl-6-(trifluoromethoxy)-1H-indol-2-yl]-N-(1,3-difluoropropan-2-yl)pyridine-3-sulfonamide] were, in that order, 141 to 143 °C and greater than 6.30.
For `CC(C)NS(=O)(=O)c1cnc(-c2c(C#N)c3ccc(C4CC4)cc3n2C2CCC2)nc1` [compound 71, 2-(3-cyano-1-cyclobutyl-6-cyclopropyl-1H-indol-2-yl)-N-(propan-2-yl)pyrimidine-5-sulfonamide] the same measures were 192 to 193 °C and greater than 6.30.
Consider `Cc1ccc2c(C#N)c(-c3ncc(S(=O)(=O)NC(C)C)cn3)n(C3CCCC3)c2c1` [compound 74, 2-(3-cyano-1-cyclopentyl-6-methyl-1H-indol-2-yl)-N-(propan-2-yl)pyrimidine-5-sulfonamide], for which the melting point lay in the range of 213 to 214 °C. The pIC50 in data set [1] was greater than 6.30.
For `CCc1ccc2c(C#N)c(-c3ccc(S(=O)(=O)NC(C)C)cn3)n(C(C)C)c2c1` [compound 75, 6-[3-cyano-6-ethyl-1-(propan-2-yl)-1H-indol-2-yl]-N-(propan-2-yl)pyridine-3-sulfonamide] the same measures were 185 to 186 °C and greater than 6.30.
The like results for `Cc1ccc2c(C#N)c(-c3ccc(S(=O)(=O)NC(CF)CF)cn3)n(C(C)C)c2c1` [compound 80, 6-[3-cyano-6-methyl-1-(propan-2-yl)-1H-indol-2-yl]-N-(1,3-difluoropropan-2-yl)pyridine-3-sulfonamide] were, in that order, 188 to 195 °C and greater than 6.30.

These data come from US8735414B2 (priority 2009, dated 2014).
